Laboratory results published in US9605050B2, “Glycoprotein synthesis and remodeling by enzymatic transglycosylation” (UNIVERSITY OF MARYLAND, BALTIMORE, priority 2006, dated 2017).

What was measured:
[1] = target: T1, Endo-A (Glutamicibacter protophormiae, UniProt Q9ZB22); experiment: Endo-A catalyzed transglycosylation of synthetic oligosaccharide oxazolines (donor substrates) with GlcNAc-peptide/protein acceptors; type: biochemical, Arthrobacter protophormiae; conditions: for donor substrate activity in Endo-A catalyzed transglycosylation: GlcNAc-tripeptide acceptor (27 or 40), phosphate buffer pH 6.5; for relative transglycosylation rates (order): acceptor 27, same conditions; for donor substrate activity in Endo-A transglycosylation to large acceptor: acceptor GlcNAc-C34, donor/acceptor 5:1
T1 sequence (Q9ZB22 entry or part of it): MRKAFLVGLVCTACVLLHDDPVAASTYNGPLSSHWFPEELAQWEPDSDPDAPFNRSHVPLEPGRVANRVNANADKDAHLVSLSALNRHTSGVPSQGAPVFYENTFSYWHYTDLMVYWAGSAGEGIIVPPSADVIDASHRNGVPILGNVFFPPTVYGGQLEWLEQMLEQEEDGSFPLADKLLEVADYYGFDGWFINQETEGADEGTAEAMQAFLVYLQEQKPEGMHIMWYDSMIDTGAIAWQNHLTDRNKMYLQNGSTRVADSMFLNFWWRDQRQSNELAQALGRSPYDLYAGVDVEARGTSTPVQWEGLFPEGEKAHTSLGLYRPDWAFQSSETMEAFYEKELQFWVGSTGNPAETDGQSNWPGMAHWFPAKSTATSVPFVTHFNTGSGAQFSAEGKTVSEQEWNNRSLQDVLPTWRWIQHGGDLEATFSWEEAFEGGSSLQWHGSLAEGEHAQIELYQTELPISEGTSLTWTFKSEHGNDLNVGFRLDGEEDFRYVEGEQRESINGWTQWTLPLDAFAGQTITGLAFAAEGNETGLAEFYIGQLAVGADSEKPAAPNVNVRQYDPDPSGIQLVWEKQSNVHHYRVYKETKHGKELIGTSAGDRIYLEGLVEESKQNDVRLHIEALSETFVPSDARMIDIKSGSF
Description: To test the transglycosylation potential of the synthetic oligosaccharide oxazolines, a small GlcNAc-tripeptide acceptor, Asn(GlcNAc)-Ile-Thr was synthesized, which represents the minimum consensus sequence for the N24 and N38 N-glycosylation sites in erythropoietin, an important therapeutic glycoprotein for the treatment of anemia.[25] […] As expected, the Endo-A catalyzed reaction of oxazolines 1 and 2 with the GlcNAc-peptide 27 (donoracceptor 3:1) proceeded smoothly in a phosphate buffer (pH 6.5) to give the corresponding N-glycopeptides 28 and 29 in 63 and 86% yields, respectively. […] Thus incubation of 3 and acceptor 27 (ratio 3:1) in the presence of Endo-A gave glycopeptide 30 carrying the N-linked tetrasaccharide moiety in 72% isolated yield. […] The Endo-A catalyzed reaction of 4 with acceptor 27 (3:1) afforded the modified glycopeptide 31 in 55% isolated yield.
(§1) In all cases, the newly formed glycosidic bond in the resulting glycopeptides 28, 29, 30, and 31 was determined by 2D NMR analysis (data not shown) to be a β-1,4-glycosidic linkage, confirming the previous conclusion that the Endo-A catalyzed transglycosylation using oligosaccharide oxazoline as the donor substrates proceeded in a regio- and stereospecific manner.[11]
Next, the structurally related disaccharide oxazolines 5-7 were tested. […] Despite this, the enzyme could tolerate selective modification on the mannose moiety, for example, attachment of additional sugar moieties at the 3′,6′-positions and even an aromatic group at the 6′-position.
(§2) This led to the synthesis of the large glycopeptide 32 that contains the core N-linked tetrasaccharide (75% yield) and glycopeptide 33 which carries a modified trisaccharide (68%) when an excess oxazoline donor (donor/acceptor 5:1) was used. […] Finally, we also tested whether Endo-A could hydrolyze the resulting “ground-state” glycopeptides 28-33 carrying the N-linked core tri-, tetra-, and pentasaccharide, respectively.
A mixture of the respective oligosaccharide oxazoline (10-30 μmol) and the GlcNAc-tripeptide 27 (3 molar equivalents of the donor) or the GlcNAc-C34[7] (5 molar equivalents of the donor) in a phosphate buffer (50 mM, pH 6.5, 0.5-1 mL) was incubated at 25° C. with the enzyme Endo-A (100 mU). The oxazoline derivative was added in portions during the reaction. The reaction was monitored by analytical HPLC by taking aliquots at intervals. It was observed that the transglycosylation reaction with the disaccharide oxazoline derivatives 1 and 4 proceeded slowly and took more than 48 h for reaching the plateau, while the transglycosylation with the tetrasaccharide oxazoline 2 proceeded quickly and would be complete within 2 h. The reaction was stopped by heating in a boiling water bath for 3 min when the peak of the transglycosylation product reached the maximum. The product was purified by preparative HPLC on a Waters preparative column (Symmetry 300, 19×300 mm) to afford the respective glycopeptide, which was characterized by NMR and ESI-MS).
To examine whether the endoglycosidase Endo-A is able to recognize the synthetic nonnatural sugar oxazoline for trans-glycosylation, a model reaction was carried out with a small GlcNAc-peptide, Ac-Asn(GlcNAc)-Ile-Thr (40),[9] as the acceptor, as shown in FIG. 11. The enzymatic reaction was monitored by reverse-phase HPLC. It was observed that the reaction between 39 and 40 (molar ratio 2:1) occurred quickly in the presence of Endo-A, while no ligation would occur in the absence of the enzyme. The glycosylation of the acceptor 40 with oxazoline 39 under the catalysis of Endo-A was essentially complete within 30 min to form the glycopeptide 41, which was isolated in 98% yield. The identity of the glycopeptide was characterized by ESI-MS and NMR.
A mixture of the hexasaccharide oxazoline 39 (0.69 mg, 0.68 μmol) and the GlcNAc-tripeptide 40 (0.2 mg, 0.34 μmol) in a phosphate buffer (50 mM, pH 6.5, 100 μl) was incubated at 23° C. with the enzyme Endo-A (200 mU). […]

[2] = target: T1, Endo-A; experiment: as above; type: biochemical, Arthrobacter protophormiae; conditions: acceptor GlcNAc-RB (43), donor/acceptor 2:1, pH 6.5, 23° C., Endo-A 200 mU
[3] = system: Bacillus chitinase; conditions: cited from earlier work
[4] = target: T1, Endo-A; experiment: Endo-A catalyzed hydrolysis of oxazolines and of the resulting glycopeptides/glycoprotein; type: biochemical, Arthrobacter protophormiae; conditions: glycopeptides: in the presence of large amount of Endo-A
Experimental: as §1, §2
This is understandable because glycoprotein 44 carries a nonnatural N-glycan and Endo-A is known to hydrolyze only high-mannose type natural N-glycans. […] All these factors contribute to the formation of the trans-glycosylation product. Similarly, Endo-A catalyzed reaction of GlcNAc-RB with the tetrasaccharide oxazoline 2 [7] gave the glycoprotein 45 carrying the core N-linked pentasaccharide Man3GlcNAc2 in 82% yield (Scheme 3). Again, the observed MS (14574.5 Da, from the deconvolution of the ESI-MS data) of the isolated product matches well with the calculated MS (14575.6 Da) of glycoprotein 45. […]

## CC1=N[C@H]2[C@@H](O1)O[C@H](CO)[C@@H](O[C@@H]1O[C@H](CO)[C@@H](O)[C@H](O)[C@@H]1O)[C@@H]2O [oxazoline 1]
[1]
  donor substrate activity in Endo-A catalyzed transglycosylation: good donor substrates
  relative transglycosylation rates (order): tetrasaccharide oxazoline 2>trisaccharide oxazoline 3>disaccharide oxazoline 1>Bn-substituted disaccharide oxazoline 4

## O-β-D-Galactopyranosyl-(1→4)-α-D-mannopyranosyl-(1→3)-[β-D-galactopyranosyl-(1→4)-α-D-mannopyranosyl-(1→6)]-β-D-mannopyranosyl-(1β4)-(1,2-dideoxy-α-D-glucopyrano)-[2,1-d]-2-oxazoline [oxazoline 39]
[1]
  donor substrate activity in Endo-A catalyzed transglycosylation: excellent substrate
[1]; acceptor Ac-Asn(GlcNAc)-Ile-Thr (40), donor/acceptor 2:1, 23° C., Endo-A 200 mU
  time to essentially complete glycosylation of acceptor 40: ≤ 30 min
[1]; in the presence of a GlcNAc-peptide or protein acceptor
  transglycosylation rate compared with enzymatic hydrolysis of the oxazoline: much faster
[2]
  time to complete conversion of GlcNAc-RB: ≤ 2 h

## CC1=N[C@H]2[C@@H](O1)O[C@H](CO)[C@@H](O[C@@H]1O[C@H](CO[C@H]3O[C@H](CO)[C@@H](O)[C@H](O)[C@@H]3O)[C@@H](O)[C@H](O)[C@@H]1O)[C@@H]2O [oxazoline 3]
[1]
  donor substrate activity in Endo-A catalyzed transglycosylation: efficient donor substrate
  relative transglycosylation rates (order): tetrasaccharide oxazoline 2>trisaccharide oxazoline 3>disaccharide oxazoline 1>Bn-substituted disaccharide oxazoline 4
  donor substrate activity in Endo-A transglycosylation to large acceptor: proceeded successfully

## CC(=O)N[C@H]1[C@H](O[C@H]2[C@H](O)[C@H]3N=C(C)O[C@H]3O[C@@H]2CO)O[C@H](CO)[C@@H](O)[C@@H]1O [oxazoline 6, chitobiose oxazoline, reference compound]
[3]
  substrate of Bacillus chitinase: substrates
[1]
  donor substrate activity in Endo-A catalyzed transglycosylation: could not be recognized by Endo-A

## CC1=N[C@H]2[C@@H](O1)O[C@H](CO)[C@@H](O[C@@H]1O[C@H](COCc3ccccc3)[C@@H](O)[C@H](O)[C@@H]1O)[C@@H]2O [oxazoline 4]
[1]
  donor substrate activity in Endo-A catalyzed transglycosylation: could still be recognized by Endo-A as a donor substrate
  relative transglycosylation rates (order): tetrasaccharide oxazoline 2>trisaccharide oxazoline 3>disaccharide oxazoline 1>Bn-substituted disaccharide oxazoline 4
  donor substrate activity in Endo-A transglycosylation to large acceptor: proceeded successfully

## CC1=NC2C(O1)OC(CO)C(OC1OC(CO)C(O)C(O)C1O)C2O (stereo not drawn) [oxazoline 7, LacNAc-oxazoline, reference compound]
[3]
  substrate of Bacillus chitinase: substrates
[1]; listed as 7
  donor substrate activity in Endo-A catalyzed transglycosylation: could not be recognized by Endo-A

## CC1=NC2C(O1)OC(CO)C(OC1OC(CO)C(O)C(O)C1O)C2O (stereo not drawn) [oxazoline 5]
[1]; listed as 5
  donor substrate activity in Endo-A catalyzed transglycosylation: inactive

B1: glycoprotein 44: homogeneous ribonuclease B glycoform carrying nonnatural N-glycan Gal2Man3GlcNAc2 at Asn-34 (protein, UniProt P61823 27-150, looked up)
Ribonuclease pancreatic: KETAAAKFERQHMDSSTSAASSSNYCNQMMKSRNLTKDRCKPVNTFVHESLADVQAVCSQKNVACKNGQTNCYQSYSTMSITDCRETGSSKYPNCAYKTTQANKHIIVACEGNPYVPVHFDASV
modifications: Gal2Man3GlcNAc2 N-glycan at Asn-34
[4]
  hydrolysis of the ground-state glycopeptide/glycoprotein by Endo-A: resistant to Endo-A catalyzed hydrolysis
